Source: the SangsterLogP compilation

| Compound | logP |
| --- | --- |
| CCCCOc1cc(C(=O)NCCN(CC)CC)c2ccccc2n1 | 4.4 |
| CNC(=O)Oc1ccc(OC)cc1 | 1.2 |
| CSc1nnc(C)c(=O)n1N | -0.16 |
| CNC(=O)Oc1ccc(C(C)C)c(C)c1 | 3.11 |
| CCCCCC=O | 1.78 |
| OCC1OC(Oc2ccc(O)cc2)C(O)C(O)C1O (centres undefined) | -1.35 |
| Oc1ccc2ccccc2c1 | 2.7 |
| N[C@@H](Cc1cnc[nH]1)C(=O)O | -3.32 |
| C1CC1 | 1.72 |
| c1ccc2c(c1)[nH]c1ccccc12 | 3.72 |
| Nc1ccc(S(=O)(=O)Nc2ccnn2-c2ccccc2)cc1 | 1.52 |
| Nc1nc(N)c2ncn([C@H]3C[C@H](F)[C@@H](CO)O3)c2n1 | 0.05 |
| Nc1ccccc1[N+](=O)[O-] | 1.85 |
| O=C1CN(/N=C/c2ccc([N+](=O)[O-])o2)C(=O)N1 | -0.47 |
| NS(=O)(=O)c1ccc([N+](=O)[O-])cc1 | 0.64 |
| CC1CC(C)C(=O)C(C(O)CC2CC(=O)NC(=O)C2)C1 (centres undefined) | 0.55 |
| COc1ccccc1OCC(=O)O | 0.98 |
| CC(=O)C(C#N)=NNc1ccc(SC(F)(F)F)cc1 | 5.04 |
| CCCCNC(=O)NS(=O)(=O)c1ccc(N)cc1 | 1.01 |
| Nc1ncnc2c1ncn2[C@H]1C[C@H](F)[C@@H](CO)O1 | 0.08 |
| NC(=O)C1(N2CCCCC2)CCN(CCCC(=O)c2ccc(F)cc2)CC1 | 2.02 |
| O=[N+]([O-])c1ccc(O)c([N+](=O)[O-])c1 | 1.67 |
| Brc1cccnc1 | 1.6 |
| C=CCN1CC[C@]23c4c5ccc(O)c4O[C@H]2[C@@H](O)C=C[C@H]3[C@H]1C5 | 1.86 |
| CCCCNCCCC | 2.83 |

| Compound | logP |
| --- | --- |
| O=[N+]([O-])/C=C/c1cc([N+](=O)[O-])ccc1Cl | 2.23 |
| Oc1cccc2cccnc12 | 2.02 |
| c1cncnc1 | -0.4 |
| Cc1cc(Cl)ccc1O | 2.63 |
| O=[N+]([O-])c1cccc2c1c([N+](=O)[O-])cc[n+]2[O-] | 0.95 |
| O=[N+]([O-])c1cccc(O)c1 | 2 |
| Cc1ccc2[nH]ccc2c1 | 2.68 |
| c1ccc(-c2ccccc2)cc1 | 3.98 |
| Nc1ccn([C@H]2C[C@H](O)[C@@H](CO)O2)c(=O)n1 | -1.77 |
| Oc1c(Cl)cc(Cl)c(Cl)c1Cl | 4.45 |
| NNC(=O)c1ccncc1 | -0.7 |
| CC(=O)N(C)c1ccccc1 | 1.12 |
| O=Nc1ccc2ccccc2c1O | 2.46 |
| C1CN2CCC1CC2 | 1.38 |
| NS(=O)(=O)c1cccc2cccnc12 | 0.42 |
| CN1C(=O)NC(=O)C(C)(C2=CCCCC2)C1=O (centres undefined) | 1.98 |
| NC(=O)c1cccnc1 | -0.37 |
| NC(=O)c1ccc(N)nc1 | 0.7 |
| ClCCl | 1.25 |
| Cc1ccc(C)cc1 | 3.15 |
| Oc1ccc(I)cc1 | 2.91 |
| NC(=O)CCCc1ccccn1 | -0.09 |
| O=C(O)c1ccc(O)cc1O | 1.63 |
| CC(C)NCC(O)c1ccc([N+](=O)[O-])cc1 (centres undefined) | 1.28 |
| Oc1cc(Cl)c(Cl)cc1Cl | 3.72 |

| Compound | logP |
| --- | --- |
| O=c1[nH]c2nc(O)nc(O)c2[nH]1 | -2.17 |
| CCCc1ccc(S(N)(=O)=O)cc1 | 1.64 |
| C1CCCC1 | 3 |
| O=C(O)Cc1ccc(Cl)cc1 | 2.12 |
| COCc1ccccc1 | 1.92 |
| CNC(=O)Oc1cccc(N(C)C)c1 | 1.43 |
| Nc1ncnc2[nH]cnc12 | -0.09 |
| O=C(O)c1ccc(N=C=S)cc1 | 3.52 |
| NS(=O)(=O)c1ccc(Cl)cc1 | 1.15 |
| COc1cccc(O)c1 | 1.34 |
| OCCN1CCN(CCCN2c3ccccc3Sc3ccc(C(F)(F)F)cc32)CC1 | 4.36 |
| OC(c1ccccc1)C1CC1 (centres undefined) | 1.95 |
| O=[N+]([O-])/C=C/c1cccc(O)c1 | 2.07 |
| CCOC(=O)c1ccc(N)cc1 | 1.86 |
| O=C1O[C@H]([C@@H](O)CO)C(O)=C1O | -1.85 |
| CCCNCCC | 1.67 |
| O=C(O)C(c1ccccc1)c1ccccc1 | 3.09 |
| O=C(O)Cc1ccc(F)cc1 | 1.55 |
| CCCCC(C)=O | 1.38 |
| O=[N+]([O-])c1ccccc1O | 1.79 |
| [O-][n+]1ccc(Cl)c2ccccc21 | 1.08 |
| O=C(NC(CO)C(O)c1ccc([N+](=O)[O-])cc1)C(Br)(Br)Br (centres undefined) | 2.17 |
| O=C(O)c1ccccc1Nc1ccccc1 | 4.36 |
| NNC(=O)c1ccnc(Cl)c1 | 0.11 |
| Cc1ccnc(N)c1 | 0.56 |

| Compound | logP |
| --- | --- |
| CC(C)[C@H](N)C(=O)O | -2.26 |
| NC(=O)NO | -1.8 |
| CN1c2ccccc2C=CC1O (centres undefined) | 1.45 |
| Cc1cccnc1 | 1.2 |
| N#Cc1ccccn1 | 0.45 |
| O=C1NS(=O)(=O)c2ccccc21 | 0.91 |
| Nc1nc(S)c2nc[nH]c2n1 | -0.07 |
| NC(=O)c1ncccc1O | 0.65 |
| O=C1CCCO1 | -0.64 |
| COc1cccc(C(=O)O)c1 | 2.02 |
| NC(=O)CCCn1nnc2ccccc21 | 0.37 |
| C#CC | 0.94 |
| CCCCC1(CC)C(=O)NC(=O)NC1=O | 1.73 |
| Nc1ccc(Oc2ccccc2)cc1 | 2.96 |
| NS(=O)(=O)c1ccc(O)cc1 | 0.06 |
| Nc1nc2c(ncn2COCCO)c(=O)[nH]1 | -1.56 |
| OCCCCCc1ccncc1 | 1.39 |
| O=[N+]([O-])/C=C/c1ccoc1 | 1.41 |
| Cn1c(CO)cnc1[N+](=O)[O-] | -0.03 |
| Nc1ccc(Cl)c(Cl)c1 | 2.69 |
| O=[N+]([O-])c1cncn1CCN1CCOCC1 | 0.07 |
| Oc1ccccc1I | 2.65 |
| O=C(O)c1ccccc1Oc1ccccc1 | 3.11 |
| CCC=Cc1ccccc1[N+](=O)[O-] | 2.86 |
| Nc1ccc(-c2ccc(N)cc2)cc1 | 1.34 |

| Compound | logP |
| --- | --- |
| FC(F)(F)c1nc2cc(Cl)c(Cl)cc2[nH]1 | 3.49 |
| Cc1ccc2cc(C)ccc2c1 | 4.31 |
| CC(=O)c1ccc(Cl)cc1 | 2.32 |
| COC(=O)C(C#N)=NNc1ccc(S(=O)(=O)C(F)(F)F)cc1 | 4.22 |
| Cn1c([N+](=O)[O-])cnc1/C=C/c1ccnc(N)n1 | 0.85 |
| CCCCc1ccc(S(N)(=O)=O)cc1 | 2.45 |
| OCc1ccc(Cl)cc1 | 1.96 |
| COC | 0.1 |
| Cc1cc2ccccc2[nH]1 | 2.53 |
| COc1ccc(CN(CCN(C)C)c2ccccn2)cc1 | 3.27 |
| CCCC(CO)n1cnc2c(N)ncnc21 (centres undefined) | 0.66 |
| Cn1cnc([N+](=O)[O-])c1Sc1ncnc2nc[nH]c12 | 0.1 |
| c1ccc2c(c1)ccc1c3ccccc3ccc21 | 5.81 |
| NCCc1c[nH]cn1 | -0.7 |
| O=c1ccn([C@H]2C[C@H](O)[C@@H](CO)O2)c(=O)[nH]1 | -1.51 |
| CC(=O)C(C#N)=NNc1ccccc1Cl | 4 |
| [N-]=[N+]=N[C@H]1C[C@H](n2ccc(=O)[nH]c2=O)O[C@@H]1CO | -0.32 |
| CC1(C)S[C@@H]2[C@H](NC(=O)[C@H](N)c3ccccc3)C(=O)N2[C@H]1C(=O)O | 1.35 |
| COP(=O)(OC)OC=C(Cl)Cl | 1.47 |
| O=NN1CCCCC1 | 0.36 |
| Cc1ncc(CO)c(CO)c1O | -0.77 |
| Cl[C@H]1[C@H](Cl)[C@@H](Cl)[C@@H](Cl)[C@H](Cl)[C@H]1Cl | 3.72 |
| O=Nc1c(O)ccc2ccccc12 | 2.28 |
| c1ncc2[nH]cnc2n1 | -0.37 |
| Oc1cccc(Br)c1 | 2.63 |

| Compound | logP |
| --- | --- |
| CCCNC(C)CC (centres undefined) | 1.91 |
| CO/N=C/c1ccccc1 | 2.53 |
| CCN(CC)N=O | 0.48 |
| Nc1ccc(S(=O)(=O)Nc2nccs2)cc1 | 0.05 |
| CSc1nncc(=O)n1N | 0.38 |
| CCC1(CC)C(=O)NC(=O)NC1=O | 0.65 |
| Nc1ccc2ncccc2c1 | 1.28 |
| CCCCCO | 1.51 |
| CCOc1cccc(O)c1 | 1.98 |
| Nc1cccc([N+](=O)[O-])c1 | 1.37 |
| FC(F)(F)c1ccc2cccnc2c1 | 3.02 |
| CC1(C)S[C@@H]2[C@H](NC(=O)COc3ccccc3)C(=O)N2[C@H]1C(=O)O | 2.09 |
| CCCN(CCC)N=O | 1.36 |
| CCOC(=O)C(C#N)=NNc1cc(Cl)cc(Cl)c1 | 3.82 |
| O=C(CCCN1CCC(O)(c2ccc(Cl)cc2)CC1)c1ccc(F)cc1 | 3.36 |
| CCCCCC(C)=O | 1.98 |
| Oc1cccc(O)c1 | 0.8 |
| CN(C)C(=O)COc1ccccc1 | 0.8 |
| O=C1[C@H]2CC=CC[C@H]2C(=O)N1SC(Cl)(Cl)Cl | 2.8 |
| N#Cc1cccc([N+](=O)[O-])c1 | 1.17 |
| c1ccc(N2CCCCC2)cc1 | 2.98 |
| [O-][n+]1cccc2ccccc21 | 0.36 |
| c1ccc(-c2cccc(-c3ccccc3)n2)cc1 | 4.82 |
| CC(C)CO | 0.76 |
